{"source": "PubChem BioAssay AID1963433", "about": "(Molecular Pharmacology Branch, DTP, NCI, 2024);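 further: compound exposure lasted seven days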;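 on viability, T/C: 100% = DMSO vehicle control viability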", "test_system": "772245-204-R-J1-PDC complex spheroid growth", "assay": "Anticancer human tumor 772245-204-R-J1-PDC patient-derived rhabdomyosarcoma cell line growth inhibition [Asc]", "details": "for IC50: curve of first compound; for viability, T/C: stronger effect = lower value", "procedure,_shortened": "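Tumor cells were grown as multicellular spheroids with stromal HUVEC and mesenchymal stem cells and treated singly or in combination. Concentrations fell in half-log steps from the clinical Cmax, or from 10 microM where none was known.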", "data": [{"smiles": "NC1CCC(NC2CC2c2ccccc2)CC1", "note": "(stereo not given) + Cc1c(S(C)(=O)=O)c(-c2cc(F)cc(N3CCN(c4ccc(NS(=O)(=O)c5ccc(NC(CCN6CCC(C(=O)OCCCP(=O)(O)O)CC6)CSc6ccccc6)c(S(=O)(=O)C(F)(F)F)c5)cc4)CC3)c2)c(-c2ccc(Cl)cc2)n1C(C)C", "values": [{"measurement": "IC50", "setting": "second compound 0.1 µM", "value": "> 0.1", "unit": "µM"}, {"measurement": "IC50", "setting": "second compound 0.316 µM", "value": "< 0.000316", "unit": "µM"}, {"measurement": "IC50", "setting": "second compound 1 µM", "value": "< 0.000316", "unit": "µM"}, {"measurement": "IC50", "setting": "second compound 3.16 µM", "value": "< 0.000316", "unit": "µM"}, {"measurement": "IC50", "setting": "second compound 10 µM", "value": "< 0.000316", "unit": "µM"}, {"measurement": "viability, T/C", "setting": "second compound 0.1 µM, first compound 0.000316 µM", "value": 69.1, "unit": "%"}, {"measurement": "viability, T/C", "setting": "second compound 0.1 µM, first compound 0.001 µM", "value": 67.9, "unit": "%"}, {"measurement": "viability, T/C", "setting": "second compound 0.1 µM, first compound 0.00316 µM", "value": 66, "unit": "%"}, {"measurement": "viability, T/C", "setting": "second compound 0.1 µM, first compound 0.01 µM", "value": 59.6, "unit": "%"}, {"measurement": "viability, T/C", "setting": "second compound 0.1 µM, first compound 0.0316 µM", "value": 66.6, "unit": "%"}, {"measurement": "viability, T/C", "setting": "second compound 0.1 µM, first compound 0.1 µM", "value": 61.2, "unit": "%"}, {"measurement": "viability, T/C", "setting": "second compound 0.316 µM, first compound 0.000316 µM", "value": 42.7, "unit": "%"}, {"measurement": "viability, T/C", "setting": "second compound 0.316 µM, first compound 0.001 µM", "value": 48.9, "unit": "%"}, {"measurement": "viability, T/C", "setting": "second compound 0.316 µM, first compound 0.00316 µM", "value": 41.6, "unit": "%"}, {"measurement": "viability, T/C", "setting": "second compound 0.316 µM, first compound 0.01 µM", "value": 38.2, "unit": "%"}, {"measurement": "viability, T/C", "setting": "second compound 0.316 µM, first compound 0.0316 µM", "value": 38.1, "unit": "%"}, {"measurement": "viability, T/C", "setting": "second compound 0.316 µM, first compound 0.1 µM", "value": 45.2, "unit": "%"}, {"measurement": "viability, T/C", "setting": "second compound 1 µM, first compound 0.000316 µM", "value": 34.1, "unit": "%"}, {"measurement": "viability, T/C", "setting": "second compound 1 µM, first compound 0.001 µM", "value": 24.2, "unit": "%"}, {"measurement": "viability, T/C", "setting": "second compound 1 µM, first compound 0.00316 µM", "value": 22.6, "unit": "%"}, {"measurement": "viability, T/C", "setting": "second compound 1 µM, first compound 0.01 µM", "value": 24.2, "unit": "%"}, {"measurement": "viability, T/C", "setting": "second compound 1 µM, first compound 0.0316 µM", "value": 26.3, "unit": "%"}, {"measurement": "viability, T/C", "setting": "second compound 1 µM, first compound 0.1 µM", "value": 24.8, "unit": "%"}, {"measurement": "viability, T/C", "setting": "second compound 3.16 µM, first compound 0.000316 µM", "value": 24.2, "unit": "%"}, {"measurement": "viability, T/C", "setting": "second compound 3.16 µM, first compound 0.001 µM", "value": 18.1, "unit": "%"}, {"measurement": "viability, T/C", "setting": "second compound 3.16 µM, first compound 0.00316 µM", "value": 17.8, "unit": "%"}, {"measurement": "viability, T/C", "setting": "second compound 3.16 µM, first compound 0.01 µM", "value": 18.7, "unit": "%"}, {"measurement": "viability, T/C", "setting": "second compound 3.16 µM, first compound 0.0316 µM", "value": 13.7, "unit": "%"}, {"measurement": "viability, T/C", "setting": "second compound 3.16 µM, first compound 0.1 µM", "value": 13.2, "unit": "%"}, {"measurement": "viability, T/C", "setting": "second compound 10 µM, first compound 0.000316 µM", "value": 20.4, "unit": "%"}, {"measurement": "viability, T/C", "setting": "second compound 10 µM, first compound 0.001 µM", "value": 18.1, "unit": "%"}, {"measurement": "viability, T/C", "setting": "second compound 10 µM, first compound 0.00316 µM", "value": 15.8, "unit": "%"}, {"measurement": "viability, T/C", "setting": "second compound 10 µM, first compound 0.01 µM", "value": 18.4, "unit": "%"}, {"measurement": "viability, T/C", "setting": "second compound 10 µM, first compound 0.0316 µM", "value": 16.8, "unit": "%"}, {"measurement": "viability, T/C", "setting": "second compound 10 µM, first compound 0.1 µM", "value": 13.2, "unit": "%"}]}, {"smiles": "C=CC(=O)N1CCN(c2nc(=O)n(-c3c(C)ccnc3C(C)C)c3nc(-c4c(O)cccc4F)c(F)cc23)C(C)C1", "note": "(stereo not given) + CCN1C(C(=O)NC23CCC(C(=O)O)(CC2)CC3)C(c2cccc(Cl)c2F)C2(C(=O)Nc3cc(Cl)ccc32)C12CCCCC2", "values": [{"measurement": "IC50", "setting": "second compound 0.03 µM", "value": "> 10", "unit": "µM"}, {"measurement": "IC50", "setting": "second compound 0.0949 µM", "value": "> 10", "unit": "µM"}, {"measurement": "IC50", "setting": "second compound 0.3 µM", "value": "> 10", "unit": "µM"}, {"measurement": "IC50", "setting": "second compound 0.949 µM", "value": "> 10", "unit": "µM"}, {"measurement": "IC50", "setting": "second compound 3 µM", "value": "> 10", "unit": "µM"}, {"measurement": "viability, T/C", "setting": "second compound 0.03 µM, first compound 0.0316 µM", "value": 105, "unit": "%"}, {"measurement": "viability, T/C", "setting": "second compound 0.03 µM, first compound 0.1 µM", "value": 102, "unit": "%"}, {"measurement": "viability, T/C", "setting": "second compound 0.03 µM, first compound 0.316 µM", "value": 94.9, "unit": "%"}, {"measurement": "viability, T/C", "setting": "second compound 0.03 µM, first compound 1 µM", "value": 113, "unit": "%"}, {"measurement": "viability, T/C", "setting": "second compound 0.03 µM, first compound 3.16 µM", "value": 110, "unit": "%"}, {"measurement": "viability, T/C", "setting": "second compound 0.03 µM, first compound 10 µM", "value": 86.4, "unit": "%"}, {"measurement": "viability, T/C", "setting": "second compound 0.0949 µM, first compound 0.0316 µM", "value": 112, "unit": "%"}, {"measurement": "viability, T/C", "setting": "second compound 0.0949 µM, first compound 0.1 µM", "value": 104, "unit": "%"}, {"measurement": "viability, T/C", "setting": "second compound 0.0949 µM, first compound 0.316 µM", "value": 103, "unit": "%"}, {"measurement": "viability, T/C", "setting": "second compound 0.0949 µM, first compound 1 µM", "value": 102, "unit": "%"}, {"measurement": "viability, T/C", "setting": "second compound 0.0949 µM, first compound 3.16 µM", "value": 106, "unit": "%"}, {"measurement": "viability, T/C", "setting": "second compound 0.0949 µM, first compound 10 µM", "value": 103, "unit": "%"}, {"measurement": "viability, T/C", "setting": "second compound 0.3 µM, first compound 0.0316 µM", "value": 104, "unit": "%"}, {"measurement": "viability, T/C", "setting": "second compound 0.3 µM, first compound 0.1 µM", "value": 111, "unit": "%"}, {"measurement": "viability, T/C", "setting": "second compound 0.3 µM, first compound 0.316 µM", "value": 113, "unit": "%"}, {"measurement": "viability, T/C", "setting": "second compound 0.3 µM, first compound 1 µM", "value": 113, "unit": "%"}, {"measurement": "viability, T/C", "setting": "second compound 0.3 µM, first compound 3.16 µM", "value": 113, "unit": "%"}, {"measurement": "viability, T/C", "setting": "second compound 0.3 µM, first compound 10 µM", "value": 93.8, "unit": "%"}, {"measurement": "viability, T/C", "setting": "second compound 0.949 µM, first compound 0.0316 µM", "value": 111, "unit": "%"}, {"measurement": "viability, T/C", "setting": "second compound 0.949 µM, first compound 0.1 µM", "value": 94.8, "unit": "%"}, {"measurement": "viability, T/C", "setting": "second compound 0.949 µM, first compound 0.316 µM", "value": 99.5, "unit": "%"}, {"measurement": "viability, T/C", "setting": "second compound 0.949 µM, first compound 1 µM", "value": 105, "unit": "%"}, {"measurement": "viability, T/C", "setting": "second compound 0.949 µM, first compound 3.16 µM", "value": 104, "unit": "%"}, {"measurement": "viability, T/C", "setting": "second compound 0.949 µM, first compound 10 µM", "value": 79.3, "unit": "%"}, {"measurement": "viability, T/C", "setting": "second compound 3 µM, first compound 0.0316 µM", "value": 81.9, "unit": "%"}, {"measurement": "viability, T/C", "setting": "second compound 3 µM, first compound 0.1 µM", "value": 85.7, "unit": "%"}, {"measurement": "viability, T/C", "setting": "second compound 3 µM, first compound 0.316 µM", "value": 74, "unit": "%"}, {"measurement": "viability, T/C", "setting": "second compound 3 µM, first compound 1 µM", "value": 77, "unit": "%"}, {"measurement": "viability, T/C", "setting": "second compound 3 µM, first compound 3.16 µM", "value": 75.2, "unit": "%"}, {"measurement": "viability, T/C", "setting": "second compound 3 µM, first compound 10 µM", "value": 60.8, "unit": "%"}]}]}
